Patent US20240099989A1, “AGENT FOR PREVENTING OR IMPROVING PERIPHERAL NEUROPATHY” (KINKI UNIVERSITY, priority 2021, published 2024)

System: Diabetic Peripheral Neuropathy in a Mouse Induced by Streptozotocin
Assay: Von Frey test (0.16 g filament), diabetic peripheral neuropathy induced by streptozotocin
Format: in vivo, C57BL/6J mice
Details: time course
Experimental: On Day 8 of acclimation, the mice in the group receiving streptozotocin and the group receiving streptozotocin+1 mg/kg xylitol were administered with streptozotocin at a dose of 200 mg/kg. A massive dose of streptozotocin destroys pancreatic cells in the mice. As a result, insulin is no longer secreted, and thus, diabetes can be developed in the mice. This day was designated as the first day of the administration (Day 0). Note that streptozotocin was administered only on the first day of administration. […]
Six to seven-week-old male C57BL/6J mice were used for the tests as with Example 7. All the mice were acclimated for seven days after arrival. Then, the mice were grouped into the following four groups: a control group, a group receiving streptozotocin, a group receiving 1 mg/kg xylitol, and a group receiving streptozotocin+1 mg/kg xylitol. Each group consisted of nine mice.
The mice in the group receiving 1 mg/kg xylitol were orally administered with xylitol at a dose of 1 mg/kg daily from Day 0. The mice in the group receiving streptozotocin+1 mg/kg xylitol were orally administered with xylitol at a dose of 1 mg/kg daily from Day 21 of administration.
The mice in the four groups described in (1) of the present example (Example 8) were placed in a cage, and the avoidance response frequency (score) was measured by pressing a filament with a bending force of 0.16 g against the back of the hind paw. […]
On Day 8 of acclimation, the mice in the group receiving streptozotocin and the group receiving streptozotocin+5 mg/kg D-threitol were administered with streptozotocin at a dose of 200 mg/kg. A massive dose of streptozotocin destroys pancreatic cells in the mice. As a result, insulin is no longer secreted, and thus, diabetes can be developed in the mice. This day was designated as the first day of the administration (Day 0). Note that streptozotocin was administered only on the first day of administration.
The mice in the group receiving 5 mg/kg D-threitol and the group receiving streptozotocin+5 mg/kg D-threitol were orally administered with D-threitol at a dose of 5 mg/kg daily from Day 0. […]
The mice in the group receiving 5 mg/kg D-threitol were orally administered with D-threitol at a dose of 5 mg/kg daily from Day 0. […]
The mice in the four groups described in (1) of the present example (Example 10) were placed in a cage, and the avoidance response frequency (score) was measured by pressing a filament with a bending force of 0.16 g against the back of the hind paw. […]
The mice in the four groups described in (1) of the present example (Example 11) were placed in a cage, and the avoidance response frequency (score) was measured by pressing a filament with a bending force of 0.16 g against the back of the hind paw. […]

[1] = streptozotocin 200 mg/kg + 5 mg/kg orally daily from Day 21 (therapy)

OC[C@@H](O)[C@H](O)CO [D-threitol]
avoidance response score [1]: reduced from Day 24 onwards

OC[C@H](O)[C@H](O)[C@H](O)[C@@H](O)CO [L-talitol]
avoidance response score [1]: reduced from Day 21 onwards

OC[C@@H](O)[C@H](O)[C@@H](O)CO [xylitol]
avoidance response score (streptozotocin 200 mg/kg + 1 mg/kg orally daily from Day 21 (therapy)): reduced from Day 21 onwards
